Here are results for 25 compounds from ChEMBL document CHEMBL3808297, “The synthesis and synergistic antifungal effects of chalcones against drug resistant Candida albicans” (2016).

One may read the MIC80 as the lowest concentration that inhibits either 80% of growth or 80% of the strains tested, depending on the study.

Converted amounts (≈) assume the structure as drawn.

Format in all cases: functional
For assay [1], the system named is Candida albicans. The assay can be described thus: Antifungal activity against fluconazole-resistant Candida albicans clinical isolate 103 by microbroth dilution method in presence of 8 ug/ml fluconazole. For orientation: In broth dilution the organism is exposed to a series of concentrations in liquid medium.
Assay [2] deals with Candida albicans. The assay can be described thus: Antifungal activity against fluconazole-resistant Candida albicans clinical isolate 103 assessed as fractional inhibitory concentration index by microbroth dilution method in presence of 8 ug/ml fluconazole.
Assay [3] has as its system Candida albicans. The assay can be described thus: Antifungal activity against fluconazole-resistant Candida albicans clinical isolate 103 by microbroth dilution method.

Consider `O=C(/C=C/c1cccs1)c1ccccc1O`, for which the MIC80 with Candida albicans [1] and in the assay with Candida albicans [3] was over 64 µg/mL throughout. The “fractional inhibitory concentration index (FICI)” value in the assay on Candida albicans [2] is over 1.06.

For the compound `COc1cc(/C=C/C(=O)c2ccccc2O)ccc1O`, the MIC80 with Candida albicans [1] and in the assay on Candida albicans [3] was over 64 µg/mL in each case. Moreover, in the assay with Candida albicans [2], the “fractional inhibitory concentration index (FICI)” value is over 1.06.

In the case of `O=C(/C=C/c1ccc(F)cc1)c1ccccc1O`, the MIC80 in the assay on Candida albicans [1] was 32 µg/mL; in the assay on Candida albicans [3] it was over 64 µg/mL. Also, in the assay on Candida albicans [2], the “fractional inhibitory concentration index (FICI)” value is 0.315.

As to `COc1ccc(/C=C/C(=O)c2ccccc2F)cc1`, the MIC80 in the assay with Candida albicans [1] is 64 µg/mL; in the assay with Candida albicans [3] it was over 64 µg/mL. Moreover, the “fractional inhibitory concentration index (FICI)” value in the assay with Candida albicans [2] was 0.506.

As for `COc1ccc(/C=C/C(=O)c2ccc(O)cc2)cc1OC`, the MIC80 with Candida albicans [1] and against Candida albicans [3] was over 64 µg/mL throughout. Also, the “fractional inhibitory concentration index (FICI)” value with Candida albicans [2] is reported as over 1.06.

Take `O=C(/C=C/c1ccc(C(F)(F)F)cc1)c1ccccc1O`: the values for the MIC80 in the assay on Candida albicans [1] and against Candida albicans [3] were 64 µg/mL and over 64 µg/mL, respectively. Also, in the assay with Candida albicans [2], the “fractional inhibitory concentration index (FICI)” value is on record as 0.506.

As for `O=C(/C=C/c1ccc2c(c1)OCO2)c1ccccc1O`, the MIC80 in the assay with Candida albicans [1] is 32 µg/mL; with Candida albicans [3], over 64 µg/mL. The “fractional inhibitory concentration index (FICI)” value in the assay with Candida albicans [2] came out at 0.315.

As to `COc1ccc(C(=O)/C=C/c2ccccc2)c(O)c1`, the MIC80 is 1 µg/mL in the assay with Candida albicans [1] and over 64 µg/mL with Candida albicans [3].

For the compound `COc1cccc(O)c1C(=O)/C=C/c1ccccc1`, the MIC80 with Candida albicans [1] is 16 µg/mL; against Candida albicans [3] it was over 64 µg/mL. The “fractional inhibitory concentration index (FICI)” value in the assay with Candida albicans [2] was 0.188.

`COc1cccc(O)c1C(=O)/C=C/c1ccc2c(c1)OCO2`: the MIC80 is 4 µg/mL in the assay on Candida albicans [1] and over 64 µg/mL in the assay on Candida albicans [3]. Further, in the assay on Candida albicans [2], the “fractional inhibitory concentration index (FICI)” value was determined as 0.094.

With `COc1cccc(O)c1C(=O)/C=C/c1ccco1`, the values for the MIC80 in the assay with Candida albicans [1] and in the assay on Candida albicans [3] were 4 µg/mL and over 64 µg/mL, respectively. The “fractional inhibitory concentration index (FICI)” value with Candida albicans [2] turned out to be 0.094.

For the compound `O=C(/C=C/c1ccc(Br)cc1)c1c(O)cccc1O`, the MIC80 is 16 µg/mL in the assay on Candida albicans [1] and over 64 µg/mL in the assay with Candida albicans [3]. Moreover, in the assay with Candida albicans [2], the “fractional inhibitory concentration index (FICI)” value is 0.188.

On to `COc1cccc(O)c1C(=O)/C=C/c1cccnc1`, for which the MIC80 in the assay on Candida albicans [1] was 8 µg/mL; in the assay with Candida albicans [3], over 64 µg/mL. Besides, in the assay with Candida albicans [2], the “fractional inhibitory concentration index (FICI)” value was determined as 0.125.

For `O=C(/C=C/c1ccc2c(c1)OCO2)c1ccccc1Cl`, the MIC80 with Candida albicans [1] was 32 µg/mL; against Candida albicans [3] it was over 64 µg/mL. For the same compound, in the assay on Candida albicans [2], the “fractional inhibitory concentration index (FICI)” value was determined as 0.315.

As to `CN(C)c1ccc(/C=C/C(=O)c2ccccc2F)cc1`, the MIC80 was 8 µg/mL in the assay on Candida albicans [1] and over 64 µg/mL against Candida albicans [3]. Besides, the “fractional inhibitory concentration index (FICI)” value in the assay on Candida albicans [2] was found to be 0.125.

As for `COc1ccc(/C=C/C(=O)c2ccccc2N)cc1OC`, the MIC80 with Candida albicans [1] is 32 µg/mL; against Candida albicans [3], over 64 µg/mL. In the assay with Candida albicans [2], the “fractional inhibitory concentration index (FICI)” value is reported as 0.315.

Turning to `O=C(/C=C/c1ccccc1)c1cc(Br)c(O)c(Br)c1O`, the results for the MIC80 in the assay with Candida albicans [1] and against Candida albicans [3] were 4 µg/mL and 64 µg/mL (≈ 161 µM), respectively. Besides, the “fractional inhibitory concentration index (FICI)” value with Candida albicans [2] was 0.125.

On to `Nc1ccccc1C(=O)/C=C/c1ccco1`, for which the MIC80 with Candida albicans [1] and in the assay with Candida albicans [3] was over 64 µg/mL each time. Besides, the “fractional inhibitory concentration index (FICI)” value in the assay on Candida albicans [2] is on record as over 1.06.

Consider `O=C(/C=C/c1ccc(CO)o1)c1ccccc1O`, for which the MIC80 is 8 µg/mL in the assay on Candida albicans [1] and over 64 µg/mL in the assay on Candida albicans [3]. The “fractional inhibitory concentration index (FICI)” value with Candida albicans [2] amounted to 0.125.

For `COc1cccc(O)c1C(=O)/C=C/c1cccs1`, the MIC80 with Candida albicans [1] was 4 µg/mL; in the assay on Candida albicans [3] it was over 64 µg/mL. The “fractional inhibitory concentration index (FICI)” value with Candida albicans [2] came to 0.094.

Turning to `COc1ccc(/C=C/C(=O)c2ccccc2Cl)cc1OC`, the MIC80 in the assay with Candida albicans [1] and in the assay on Candida albicans [3] was over 64 µg/mL throughout. Besides, in the assay on Candida albicans [2], the “fractional inhibitory concentration index (FICI)” value was over 1.06.

Turning to `COc1cccc(O)c1C(=O)/C=C/c1ccc(CO)o1`, the results for the MIC80 in the assay on Candida albicans [1] and in the assay with Candida albicans [3] were 8 µg/mL and over 64 µg/mL, respectively. Further, the “fractional inhibitory concentration index (FICI)” value in the assay with Candida albicans [2] is 0.125.

Turning to `O=C(/C=C/c1ccco1)c1ccccc1O`, the MIC80 was 64 µg/mL in the assay on Candida albicans [1] and over 64 µg/mL against Candida albicans [3]. Besides, in the assay with Candida albicans [2], the “fractional inhibitory concentration index (FICI)” value is given as 0.506.

Consider `O=C(/C=C/c1ccccc1)c1ccc(O)cc1` [4'-HYDROXYCHALCONE], for which the MIC80 in the assay on Candida albicans [1] and against Candida albicans [3] was over 64 µg/mL in each case. For the same compound, in the assay with Candida albicans [2], the “fractional inhibitory concentration index (FICI)” value is reported as over 1.06.

On to `O=c1cc(-c2ccccc2)oc2cc(O)c(O)c(O)c12` [BAICALEIN], for which the MIC80 stood at 4 µg/mL with Candida albicans [1] and 32 µg/mL (≈ 118 µM) with Candida albicans [3]. The “fractional inhibitory concentration index (FICI)” value in the assay on Candida albicans [2] was 0.188.
